The structures appear in SMILES notation. Bridge positions count the residues as written; N and C are the ends. Square brackets hold non-standard residues; d marks the D form. Peptide text beside a SMILES is read from it. * marks the point of attachment. pGlu = O=C1CC[C@@H](C(=O)O)N1; NHPhenethyl = c1ccc(CCN*)cc1; Nle = CCCC[C@H](N)C(=O)O; Aib = CC(C)(N)C(=O)O

Data set [1] in a line: in vitro. To be noted: rat, plasma.
Experimental: The calcium flux protocol described above was followed, with the following changes. The peptides were also incubated with 5% rat plasma (Bioreclamation # [sequence]-M, Na Heparin-treated). Readings were taken at time points t0 and t24 hrs, after incubation in a 37° C. tissue culture incubator. Peptide plasma half-life in minutes was estimated by calculating the following:
2) Calculate slope of value above and
The nature of data set [2]: Plasma stability assay (LC-MS). It is filed as in vitro ADME. To be noted: male, Sprague-Dawley, heparinized rat plasma, 37° C., Table 3, read-out: Plasma stability t½. As to the method:
Working solution: 1 mg/mL test article is prepared in Milli-Q water
Extraction solution: Methanol:Acetonitrile:Water (1:1:1) with 0.1% Formic Acid and 400 ng/mL Glyburide.
Plasma: Male Sprague-Dawley rat plasma (with sodium heparin), purchased from Bioreclamation LLC (Liverpool, N.Y.).
Test article was prepared in one of the following biological matrices: heparinized rat plasma, heparinized rat whole blood or lung homogenate. The plasma and whole blood sample was prepared at 5000 ng/mL by adding 5 uL of 1 mg/mL Working solution to 995 uL of rat plasma or whole blood. Lung homogenate samples were prepared by diluting lung homogenate to 1 mg/ml protein concentration with phosphate buffered saline (PBS), followed by addition of 5 uL Working solution to 995 uL diluted lung homogenate. The samples were incubated at 37° C. with gentle shaking (65˜75 rpm) in a water bath incubator. At times 0 min, 5 min, 15 min, 30 min, 60 min, 120 and 240 min, 25 uL aliquots of incubation samples were transferred to 96-well plate and immediately protein precipitated using 150 uL of Extraction solution. After completion of incubation experiment, the sample plate was centrifuged at 4000 rpm at 4° C. for 10 minutes. Afterwards, a pipetting device (Tecan Temo) was used to transfer the supernatants to another plate and add 50 uL of water to all samples. The plate was vortexed prior to LC-MS analysis.
LC-MS Analysis of stability samples
HPLC: Agilent 1290 HPLC with autosampler
Column: MAC-MOD ACE C18, 3 μm, 30 mm×2.1 mm i.d.
Mobile phase A: 0.1% Formic acid in acetonitrile
Mobile phase B: 0.1% Formic acid in water

Data set [3] concerns the target T1, hAPJ (Homo sapiens, UniProt P35414).
T1 sequence (P35414 1-380): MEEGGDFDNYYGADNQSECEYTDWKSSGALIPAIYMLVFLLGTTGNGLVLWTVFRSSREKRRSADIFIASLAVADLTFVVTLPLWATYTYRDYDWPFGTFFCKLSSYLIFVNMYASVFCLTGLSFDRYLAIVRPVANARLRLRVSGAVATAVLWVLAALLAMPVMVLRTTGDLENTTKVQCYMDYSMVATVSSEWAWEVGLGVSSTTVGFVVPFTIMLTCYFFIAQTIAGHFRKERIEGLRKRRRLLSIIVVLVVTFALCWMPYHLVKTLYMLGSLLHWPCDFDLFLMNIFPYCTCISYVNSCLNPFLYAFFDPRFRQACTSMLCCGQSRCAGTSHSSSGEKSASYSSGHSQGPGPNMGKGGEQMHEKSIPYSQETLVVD
Kind of data set: hAPJ Calcium Flux Assay. It is filed as cell-based. To be noted: Chem-5 APJ stable cells, FLIPR calcium flux; read-out: hAPJ Ca2+ Flux EC50. As to the method:
Chem-5 APJ stable cells (Millipore # HTS068C) were plated in 384-well format with 10,000 cells/well in 25 ul growth media, then grown 24 hours in a 37° C. tissue culture incubator. One hour before the assay, 25 ul/well FLIPR Calcium 4 dye (Molecular Devices R8142) with 2.5 mM probenecid was added, and cells were incubated one hour in a 37° C. tissue culture incubator. Peptides were solubilized in HBSS, HEPES & 0.1% BSA buffer, and serially-diluted 10-fold, from 50 uM to 5 pM, in triplicate. FLIPR Tetra was used to add peptide to the cells with dye (1:5, for final peptide concentrations ranging from 10 uM to 1 pM). FLIPR dye inside the cells emitted fluorescence after binding to calcium, while fluorescence from outside the cells was masked. Fluorescence was measured using 470-495 excitation and 515-575 emission wavelengths on the FLIPR Tetra. Readings were done for 3 minutes total, beginning 10 seconds before the peptide addition. Maximum-minimum values were calculated and plotted for each peptide concentration, and GraphPad prism software was used to calculate EC50 values at the curve inflection points, for calcium flux stimulation by peptides.

The mark [4] stands for this setting: Surrogate Activity based Plasma stability t½.
Setting [5] is: Surrogate activity-based Plasma stability t½.

With `CCCC[C@@H]1NC(=O)[C@@H]2CCCN2C(=O)CNC(=O)[C@H](CCCCN)NC(=O)[C@H](Cc2c[nH]cn2)NC(=O)[C@H](CO)NC(=O)[C@@H](NC(=O)[C@H](CCCNC(=N)N)NC(=O)[C@@H]2CCCN2C(=O)[C@H](CCCNC(=N)N)NC(=O)[C@@H]2CCC(=O)N2)CSSC[C@@H](C(=O)N[C@@H](Cc2ccccc2)C(=O)O)NC1=O` [Example 1, pE-R-P-R-C*-S-H-K-G-P-Nle-C*-F-OH] ([pGlu]RPRCSHKGP[Nle]CF-OH; disulfide 5-12), the half-life in data set [1] (setting [4]) and in data set [1] (setting [5]) was 2.12 h throughout. Besides, the half-life at 5000 ng/mL in data set [2] worked out at 2.82 h. In data set [3], the EC50 (commonly the concentration that produces a half-maximal response) is 0.74 nM.

For `CCCC[C@@H]1NC(=O)[C@@H]2CCCN2C(=O)CNC(=O)[C@H](CCCCN)NC(=O)[C@@H](NC(=O)[C@H](CO)NC(=O)[C@H](CC(C)C)NC(=O)[C@H](CCCNC(=N)N)NC(=O)[C@@H]2CCCN2C(=O)[C@H](CCCNC(=N)N)NC(=O)[C@@H]2CCC(=O)N2)CSSC[C@@H](C(=O)N[C@@H](Cc2ccccc2)C(=O)O)NC1=O` [Example 3, pE-R-P-R-L-S-C*-K-G-P-Nle-C*-F-OH] ([pGlu]RPRLSCKGP[Nle]CF-OH; disulfide 7-12), the half-life in data set [1] (setting [4]) and in data set [1] (setting [5]) was 0.433 h in each case. Further, in data set [2], the half-life at 5000 ng/mL was 1.35 h. For the same compound, the EC50 in data set [3] came out at 128 nM.

`CCCC[C@@H]1NC(=O)[C@@H]2CCCN2C(=O)[C@@H](NC(=O)[C@H](CCCCN)NC(=O)[C@H](Cc2c[nH]cn2)NC(=O)[C@H](CO)NC(=O)[C@H](CC(C)C)NC(=O)[C@H](CCCNC(=N)N)NC(=O)[C@@H]2CCCN2C(=O)[C@H](CCCNC(=N)N)NC(=O)[C@@H]2CCC(=O)N2)CSSC[C@@H](C(=O)N[C@@H](Cc2ccccc2)C(=O)O)NC1=O` [Example 14, pE-R-P-R-L-S-H-K-C*-P-Nle-C*-F-OH] ([pGlu]RPRLSHKCP[Nle]CF-OH; disulfide 9-12): the half-life in data set [1] (setting [4]) and in data set [1] (setting [5]) was 0.483 h throughout. For the same compound, the half-life at 5000 ng/mL in data set [2] came out at 1.08 h. In addition, the EC50 in data set [3] was 0.81 nM.

In the case of `CCCC[C@@H]1NC(=O)[C@@H]2CCCN2C(=O)[C@@H](NC(=O)[C@H](CCCCN)NC(=O)C(C)(C)NC(=O)[C@H](CO)NC(=O)[C@H](CC(C)C)NC(=O)[C@H](CCCNC(=N)N)NC(=O)[C@@H]2CCCN2C(=O)[C@H](CCCNC(=N)N)NC(=O)[C@@H]2CCC(=O)N2)CSSC[C@@H](C(=O)NCCc2ccccc2)NC1=O` [Example 15, pE-R-P-R-L-S-Aib-K-C*-P-Nle-C*-NH(Phenethyl)] ([pGlu]RPRLS[Aib]KCP[Nle]C-NHPhenethyl; disulfide 9-12), the half-life in data set [1] (setting [4]) and in data set [1] (setting [5]) was 0.683 h in each case. Also, in data set [2], the half-life at 5000 ng/mL came out at 0.7 h. In data set [3], the EC50 was 4 nM.

For `CCCC[C@@H]1NC(=O)[C@@H]2CCCN2C(=O)[C@@H](NC(=O)[C@H](CCCCN)NC(=O)[C@H](Cc2c[nH]cn2)NC(=O)[C@@H](C)NC(=O)[C@H](CC(C)C)NC(=O)[C@H](CCCNC(=N)N)NC(=O)[C@@H]2CCCN2C(=O)[C@H](CCCNC(=N)N)NC(=O)[C@@H]2CCC(=O)N2)CSSC[C@@H](C(=O)N[C@H](Cc2ccccc2)C(=O)O)NC1=O` [Example 17, pE-R-P-R-L-a-H-K-C*-P-Nle-C*-f-OH] ([pGlu]RPRL[dA]HKCP[Nle]C[dF]-OH; disulfide 9-12), the half-life in data set [1] (setting [4]) and in data set [1] (setting [5]) was 15.1 h throughout. For the same compound, in data set [2], the half-life at 5000 ng/mL is 8.42 h. In addition, the EC50 in data set [3] is 1.9 nM.

Compound `CCCC[C@@H]1NC(=O)[C@@H]2CCCN2C(=O)[C@@H](NC(=O)[C@H](CCCCN)NC(=O)[C@H](Cc2c[nH]cn2)NC(=O)[C@@H](CO)NC(=O)[C@H](CC(C)C)NC(=O)[C@H](CCCNC(=N)N)NC(=O)[C@@H]2CCCN2C(=O)[C@H](CCCNC(=N)N)NC(=O)[C@@H]2CCC(=O)N2)CSSC[C@@H](C(=O)N[C@H](Cc2ccccc2)C(=O)O)NC1=O` [Example 21, pE-R-P-R-L-s-H-K-C*-P-Nle-C*-f-OH] ([pGlu]RPRL[dS]HKCP[Nle]C[dF]-OH; disulfide 9-12) came in with a half-life in data set [1] (setting [5]) of 8.88 h. Further, the EC50 in data set [3] worked out at 9.7 nM.

The values are drawn from patent US9683018B2, “Disulfide cyclic polypeptides for the treatment of heart failure” (priority 2013, dated 2017).
